# Measurements reported in patent US20120321610A1, “METHOD TO INHIBIT NEUROPATHIC PAIN BY INTRATHECAL INJECTION OF PROTEIN PHOSPHATASES” (priority 2011, published 2012).
# Tests used:
# Format in all cases: in vivo, rat
# [1] = system: control, uninjured animals; assay: Mechanical withdrawal threshold in control, uninjured animals after intrathecal injection; settings: uninjured rats
# Excerpt: (§1) An automated instrument was used for assessing touch sensitivity. An animal was placed inside a plastic box on a raised plasticized wire-mesh surface. The animal is free to move within the confines of the box. The animal acclimates to the apparatus, and a touch stimulator unit was then slid under the animal to position a stainless steel filament (0.5 mm diameter) under the plantar surface of a paw. A button press causes the filament to move perpendicularly to the tested paw. The filament exerts an increasing force, starting below the threshold of detection and increases until the animal withdraws the paw. The force applied to the filament that results in paw withdrawal was recorded.
# (§2) For both behaviors, the ipsilateral, injured, paw was tested four times to obtain an average value. Each test is separated by 5 min. Persons performing behavioral tests are blinded to treatment whenever possible.
# The animals were anesthetized with isoflurane and securely held in the sternal position. A 25 μl Hamilton-brand microsyringe was fitted with a 25-gauge, 1-inch hypodermic needle and the needle inserted between the dorsal aspects of L5 and L6 perpendicular to the vertebral column. This site corresponds to the region where the spinal cord ends and the cauda equina begins and was chosen to reduce the possibility of spinal damage. […]
# [2] = system: control, uninjured animals; assay: Thermal withdrawal latency in control, uninjured animals after intrathecal injection; settings: uninjured rats
# Protocol: (§3) Thermal sensitivity is assessed using the hindpaw withdrawal test to a thermal noxious stimulus. An animal was placed inside a plastic box on a raised glass surface. The animal is free to move within the confines of the box. A movable, focused beam of radiant heat was placed under the glass on which the animal is resting a paw. The glass is progressively heated until a noxious threshold was reached to elicit paw withdrawal. As soon as the animal moved its paw, a photocell in the metal enclosure containing the heat source turned off the light. The latency (in sec) for the animal to withdraw its paw was recorded by a digital automatic display.
# as §2
# The animals were anesthetized with isoflurane and securely held in the sternal position. A 25 μl Hamilton-brand microsyringe was fitted with a 25-gauge, 1-inch hypodermic needle and the needle inserted between the dorsal aspects of L5 and L6 perpendicular to the vertebral column. This site corresponds to the region where the spinal cord ends and the cauda equina begins and was chosen to reduce the possibility of spinal damage. The needle was advanced until a slight but noticeable movement of the tail or the leg was observed. […]
# [3] = system: calcineurin; assay: Calcineurin activity in the PSD after intrathecal injection (commercial kit); settings: control, uninjured rats; 90 minutes after intrathecal injection; vs saline; FIG. 16
# Protocol: (§4) Animals were anesthetized with isoflurane and while still deeply anesthetized were euthanized with an intracardiac injection of super-saturated potassium chloride (>350 mg/ml). A laminectomy was used to rapidly (<2 min) expose the lumbar spinal cord at L5. About 1 cm of the cord was excised and placed into a Petri dish containing dry-ice-cold saline or homogenizing buffer. Subsequently, the cord was cut under a dissecting microscope into dorsal and ventral halves, and the dorsal half further divided into ipsilateral and contralateral quadrants. All tissues were immediately placed into dry-ice cooled collecting tubes, and stored at −80° C. until used.
# (§5) Calcineurin activity was obtained with a commercial kit (Enzo Life Sciences, Plymouth Meeting, Pa.) and expressed as nmol of phosphate released/min/mg of protein. Immunoblots were performed as described previously (Miletic et al., 2002). Calcineurin isoform […] (Millipore, Billerica, Mass.) was used at a dilution of 1:1000. Developed membranes were stripped and re-probed with beta III tubulin (1:1000; Promega, Madison, Wis.) as the loading control. Protein levels were estimated with the BioSpectrum 500 Image Analysis System (UVP, Upland, Calif.). The calcineurin Aα content within a gel was expressed over the beta III tubulin content, and then the content in sham-operated or CCI animals was normalized to those in control animals. […]
# [4] = system: CCI animals (chronic constriction injury of the sciatic nerve); assay: Mechanical withdrawal threshold in CCI animals after intrathecal injection; settings: for analgesia, mechanical stimulus threshold: group data, FIG. 12
# Excerpt: as §1, §2
# (§6) Animals were anesthetized with isoflurane and prepared for surgery by clipping the hair over the mid-thigh area of the left hind leg, scrubbing the clipped area with povidone iodine and alcohol (repeated three times), and lubricating the eyes with sterile ophthalmic ointment. The sciatic nerve was exposed at mid-thigh level by blunt dissection through the biceps femoris muscles. The nerve was freed of adherent tissue, and four ligatures (4.0 chromic gut) were spaced about 1 mm apart. Care was taken to tie the ligatures so that the nerve trunk is just barely constricted when viewed with a dissecting microscope at 40×. […] The incision was closed in layers using chromic gut sutures for muscle and silk sutures for skin.
# (§7) A stock solution of calcineurin enzyme at a concentration of 100 units/microliter is commercially available (Enzo Life Sciences, Plymouth Meeting, Pa., Cat. No. BML-SE163-5000). The stock solution was diluted 1:10 with saline (1 part of calcineurin stock solution+9 parts of saline) to make a diluted calcineurin solution of 10 units/microliter. Ten microliters of the diluted calcineurin solution was then injected intrathecally. In other words the dose is 100 units of calcineurin per animal. Animal weights were approximately 200 to 250 g. This equates to a dosage of roughly 3 μg/kg body weight (in the rat).
# (§8) The animals were anesthetized with isoflurane and securely held in the sternal position. A 25 μl Hamilton-brand microsyringe was fitted with a 25-gauge, 1-inch hypodermic needle and the needle inserted between the dorsal aspects of L5 and L6 perpendicular to the vertebral column. This site corresponds to the region where the spinal cord ends and the cauda equina begins and was chosen to reduce the possibility of spinal damage. The needle was advanced until a slight but noticeable movement of the tail or the leg was observed. […] Drugs were injected in a volume of 10 μl and the syringe was held in place for a few seconds before being progressively and slowly withdrawn to avoid drug outflow. The rat then recovers from the anesthesia.
# [5] = system: CCI animals (chronic constriction injury of the sciatic nerve); assay: Thermal withdrawal latency in CCI animals after intrathecal injection; settings: for analgesia, thermal latency threshold: group data, 100 units intrathecal, FIG. 13
# Protocol: as §3, §2, §6, §7, §8
# [6] = system: calcineurin Aα isoform; assay: Immunoblot of calcineurin Aα content in the post-synaptic density of spinal dorsal horn neurons after intrathecal injection; settings: CCI rats; 90 min after single intrathecal injection of 100 units; vs saline; FIG. 7
# Protocol: as §4, §5
substance,measurement,setting,value
FK-506 [reference compound],mechanical withdrawal thresholds,"[1]; 90 minutes after intrathecal injection, vs saline, FIG. 14",significant decrease
same,thermal latencies,"[2]; 90 minutes after intrathecal injection, vs saline, FIG. 15",significant decrease
same,calcineurin activity in PSD,[3],significant decrease
calcineurin,mechanical hypersensitivity,"[4]; CCI rats 7 days post-ligation, 100 units in 10 μl intrathecal, retested 90 min after injection, FIG. 5",significantly attenuated
same,duration of pain relief from a single intrathecal injection,"[4]; CCI rats, 100 units intrathecal, mechanical and thermal tests",≥ 4 days
same,"analgesia, mechanical stimulus threshold","[4]; CCI rats, 2-day post-injection group, 100 units intrathecal",provided analgesia
same,"analgesia, mechanical stimulus threshold","[4]; CCI rats, 4-day post-injection group, 100 units intrathecal",provided analgesia
same,"analgesia, mechanical stimulus threshold","[4]; CCI rats, 6-day post-injection group, 100 units intrathecal",disappeared
same,mechanical hypersensitivity,"[4]; CCI rats, single intrathecal injection 100 units, 2 days after injection, same animals retested (continuous), FIG. 8",significantly attenuated
same,mechanical hypersensitivity,"[4]; CCI rats, single intrathecal injection 100 units, 4 days after injection, continuous, FIG. 8",continued to exhibit analgesia
same,mechanical hypersensitivity,"[4]; CCI rats, single intrathecal injection 100 units, 6 days after injection, continuous, FIG. 8",exhibited once again mechanical and thermal hypersensitivity
same,thermal hypersensitivity,"[5]; CCI rats 7 days post-ligation, 100 units in 10 μl intrathecal, retested 90 min after injection, FIG. 6",significantly attenuated
same,"analgesia, thermal latency threshold","[5]; CCI rats, 2-day post-injection group",provided analgesia
same,"analgesia, thermal latency threshold","[5]; CCI rats, 4-day post-injection group",provided analgesia
same,"analgesia, thermal latency threshold","[5]; CCI rats, 6-day post-injection group",disappeared
same,thermal hypersensitivity,"[5]; CCI rats, single intrathecal injection 100 units, 2 days after injection, continuous, FIG. 9",significantly attenuated
same,thermal hypersensitivity,"[5]; CCI rats, single intrathecal injection 100 units, 4 days after injection, continuous, FIG. 9",continued to exhibit analgesia
same,thermal hypersensitivity,"[5]; CCI rats, single intrathecal injection 100 units, 6 days after injection, continuous, FIG. 9",exhibited once again mechanical and thermal hypersensitivity
same,calcineurin Act in ipsilateral PSD,[6],significantly more
same,"behavior, mechanical stimulation","[1]; single intrathecal injection, FIG. 10",not modified
same,"behavior, thermal stimulation","[2]; single intrathecal injection, FIG. 11",not modified
